Where “and” joins values, the source holds several entries; their conditions need not be identical. Equal values may be shown once. Read-outs that look alike come from different tables or passages of the source.
How the values were obtained:
guinea pig lung slices = assay: Methacholine-induced airway constriction in guinea pig lung slices; type: cell-based; details: for MCh-induced airway constriction response (Figure 5D): Exp1-6; for EC50: Cavia porcellus
Method: All curve fits were generated using the software program GraphPad Prism. Data are represented as mean ± SEM obtained from 6 guinea pigs.
(§1) Precision-cut lung slices were prepared as described previously ([61], [62]). A 3% solution of low melting-point agarose (Gerbu Biotechnik GmbH) in ultrapure water was prepared by heating it a microwave until fully dissolved. […] After filling, the lungs were covered with ice for 30 minutes to solidify the agarose for slicing. […] Lung slices were cut at a thickness of 500 μm and washed several times with slicing buffer to remove debris and washout the isoproterenol. Slices were incubated overnight in a 60 mm dish in sterile incubation buffer: MEM composed of lung slice buffer supplemented with 0.5 mM sodium pyruvate, 1 mM glutamine (Gibco), MEM-amino acids mixture (1:50), MEM-vitamins mixture (1:100; Gibco), and penicillin-streptomycin (1:100; Gibco), pH = 7.2, at 37°C in a CO2- and humidity-controlled atmosphere.
(§2) After washing the slices in medium, individual guinea pig lung slices were mechanically maintained with a Teflon ring with an inner diameter of 7 mm and covered with 1 mL of incubation buffer. […] Image acquisition software (NIS-Elements, Nikon) was used to quantify airway luminal area. Images of the airways were acquired every 2 seconds during the whole course of the experiment, starting 2 minutes before the addition of any agent to allow for baseline measurements of the airway caliber. For each methacholine or ovalbumin concentration, the maximal airway constriction was expressed as percentage of the initial (baseline) airway luminal area and plotted against that concentration.

[1] = tested on: lung slices obtained from ovalbumin-sensitized guinea pigs; assay: Ovalbumin-induced airway constriction in lung slices from ovalbumin-sensitized guinea pigs; type: cell-based, guinea pig; details: Exp1-5
From the text: All curve fits were generated using the software program GraphPad Prism. Data are represented as mean ± SEM of 4–5 guinea pigs (see Table 2 for statistical analyses).
Outbred, male, specified pathogen-free Dunkin Hartley guinea pigs (Charles River Laboratory) weighing 200 to 400 g were used. The animals were housed in pairs under a 12-hour light/dark cycle in a temperature- and humidity-controlled room with food and tap water ad libitum. For studies in the guinea pig model of allergic asthma, animals were actively IgE-sensitized to ovalbumin by injecting a suspension containing 100 μg/mL ovalbumin and 100 mg/mL Al(OH)3 in saline. Each animal was injected with 1.0 mL of suspension: 0.5 mL was injected i.p. and 0.5 mL was divided over 7 s.c. sites close to lymph nodes in the neck, paws, and lumbar regions ([24]). Animals were euthanized at least 4 weeks after sensitization.
as §1, §2

[2] = 10 µM Fenoterol, -Log [MCh] 6.5
[3] = 10 µM Fenoterol, -Log [MCh] 7.5

CC(Cc1ccc(O)cc1)NCC(O)c1cc(O)cc(O)c1 (centres unmarked) [Fenoterol, fenoterol]
airway area in MCh concentration-response (Figure 5A/5C) (guinea pig lung slices; 1 µM Fenoterol, -Log [MCh] 2.5): 0.0 | airway area in MCh concentration-response (Figure 5A/5C) (guinea pig lung slices; 1 µM Fenoterol, -Log [MCh] 3): 0.0 | airway area in MCh concentration-response (Figure 5A/5C) (guinea pig lung slices; 1 µM Fenoterol, -Log [MCh] 3.5): 0.0 | airway area in MCh concentration-response (Figure 5A/5C) (guinea pig lung slices; 1 µM Fenoterol, -Log [MCh] 4): 0.0 | airway area in MCh concentration-response (Figure 5A/5C) (guinea pig lung slices; 1 µM Fenoterol, -Log [MCh] 4.5): 0.0 | airway area in MCh concentration-response (Figure 5A/5C) (guinea pig lung slices; 1 µM Fenoterol, -Log [MCh] 7): 100.3 and 103.0 and 66.3 and 92.9 and 96.6 | airway area in MCh concentration-response (Figure 5A/5C) (guinea pig lung slices; 1 µM Fenoterol, -Log [MCh] 7.5): 101.4 and 100.4 and 106.4 and 96.3 | airway area in MCh concentration-response (Figure 5A/5C) (guinea pig lung slices; 1 µM Fenoterol, -Log [MCh] 8): 99.1 and 105.8 and 109.5 and 112.9 | airway area in MCh concentration-response (Figure 5A/5C) (guinea pig lung slices; [2]): 59.0 and 89.4 and 82.6 and 83.1 and 91.0 and 74.6 | MCh-induced airway constriction response (Figure 5D) (guinea pig lung slices; [2]): 59.0 and 89.4 and 82.6 and 83.1 and 91.0 and 74.6 | airway area in MCh concentration-response (Figure 5A/5C) (guinea pig lung slices; 10 µM Fenoterol, -Log [MCh] 7): 77.1 and 109.6 and 109.2 and 101.3 and 91.9 | MCh-induced airway constriction response (Figure 5D) (guinea pig lung slices; 10 µM Fenoterol, -Log [MCh] 7): 77.1 and 109.6 and 109.2 and 101.3 and 91.9 | airway area in MCh concentration-response (Figure 5A/5C) (guinea pig lung slices; [3]): 94.2 and 110.7 and 102.7 and 105.1 | MCh-induced airway constriction response (Figure 5D) (guinea pig lung slices; [3]): 94.2 and 110.7 and 102.7 and 105.1 | airway area in MCh concentration-response (Figure 5A/5C) (guinea pig lung slices; 10 µM Fenoterol, -Log [MCh] 8): 106.3 and 110.5 and 104.8 | MCh-induced airway constriction response (Figure 5D) (guinea pig lung slices; 10 µM Fenoterol, -Log [MCh] 8): 106.3 and 110.5 and 104.8 | MCh-induced airway constriction response (Figure 5D) (guinea pig lung slices; 100 µM Fenoterol, -Log [MCh] 6.5): 82.5 and 88.6 and 98.9 and 92.2 and 82.0 | MCh-induced airway constriction response (Figure 5D) (guinea pig lung slices; 100 µM Fenoterol, -Log [MCh] 7): 98.1 and 101.4 and 98.8 and 109.0 and 104.9 | MCh-induced airway constriction response (Figure 5D) (guinea pig lung slices; 100 µM Fenoterol, -Log [MCh] 7.5): 106.4 and 100.0 and 110.6 and 99.9 | MCh-induced airway constriction response (Figure 5D) (guinea pig lung slices; 100 µM Fenoterol, -Log [MCh] 8): 101.0 and 105.4 and 99.3 and 99.7 | EC50 (guinea pig lung slices; read-out: MCh EC50, 1 μM Fenoterol): 370 ± 80 nM | EC50 (guinea pig lung slices; read-out: MCh EC50, 10 μM Fenoterol): 560 ± 30 nM | EC50 (guinea pig lung slices; read-out: MCh EC50, 100 μM Fenoterol): 1000 ± 150 nM | OVA-induced airway constriction response (Figure 6) ([1]; 0.1 µM Fenoterol, [OVA] 0.001 ng/ml): 100.0 and 98.0 and 100.9 | OVA-induced airway constriction response (Figure 6) ([1]; 0.1 µM Fenoterol, [OVA] 0.01 ng/ml): 100.0 and 105.5 and 96.2 and 100.8 | OVA-induced airway constriction response (Figure 6) ([1]; 0.1 µM Fenoterol, [OVA] 0.1 ng/ml): 100 and 99.0 | OVA-induced airway constriction response (Figure 6) ([1]; 0.1 µM Fenoterol, [OVA] 1 ng/ml): 100.0 and 109.4 and 99.5 and 95.4 | OVA-induced airway constriction response (Figure 6) ([1]; 0.1 µM Fenoterol, [OVA] 10 ng/ml): 109.1 and 98.9 and 69.5 | OVA-induced airway constriction response (Figure 6) ([1]; 0.1 µM Fenoterol, [OVA] 100000 ng/ml): 0.0 | OVA-induced airway constriction response (Figure 6) ([1]; 0.1 µM Fenoterol, [OVA] 1000000 ng/ml): 0.0 | OVA-induced airway constriction response (Figure 6) ([1]; 1 µM Fenoterol, [OVA] 0.001 ng/ml): 103.2 and 100 and 98.0 | OVA-induced airway constriction response (Figure 6) ([1]; 1 µM Fenoterol, [OVA] 0.01 ng/ml): 103.0 and 100.0 and 95.8 | OVA-induced airway constriction response (Figure 6) ([1]; 1 µM Fenoterol, [OVA] 0.1 ng/ml): 97.3 and 96.9 and 98.7 and 100 | OVA-induced airway constriction response (Figure 6) ([1]; 1 µM Fenoterol, [OVA] 1 ng/ml): 103.2 and 98.4 and 95.2 and 100.1 and 99.5 | OVA-induced airway constriction response (Figure 6) ([1]; 1 µM Fenoterol, [OVA] 10 ng/ml): 101.0 and 98.4 and 92.9 and 100.7 and 99.7 | OVA-induced airway constriction response (Figure 6) ([1]; 1 µM Fenoterol, [OVA] 100 ng/ml): 98.8 and 99.1 and 98.3 and 105.5 and 98.7 | OVA-induced airway constriction response (Figure 6) ([1]; 1 µM Fenoterol, [OVA] 1000 ng/ml): 95.3 and 96.8 and 97.2 and 98.0 | OVA-induced airway constriction response (Figure 6) ([1]; 1 µM Fenoterol, [OVA] 10000 ng/ml): 91.4 and 95.6 and 97.2 and 105.0 and 93.6

Reference: paper PMC10503797, “Allosteric modulator potentiates β2AR agonist–promoted bronchoprotection in asthma models” (The Journal of Clinical Investigation, 2023)
